Assay results published in ChEMBL document CHEMBL4507294, “Data for DCP probe MSD-CYP11B2” (2021).

Assays:
[1] = target: Ephrin type-B receptor 2 (Homo sapiens) (UniProt P29323); settings: Compound concentration 1000.0 nM
[2] = target: Casein kinase I isoform gamma-3 (Homo sapiens) (UniProt Q9Y6M4); settings: Compound concentration 1000.0 nM
[3] = target: 5-hydroxytryptamine receptor 2B (Homo sapiens, UniProt P41595); settings: Compound concentration 10.0 uM
[4] = target: Calcium/calmodulin-dependent protein kinase type II subunit delta (Homo sapiens) (UniProt Q13557); settings: Compound concentration 1000.0 nM
[5] = target: Sodium-dependent dopamine transporter (Homo sapiens) (UniProt Q01959); settings: Compound concentration 10.0 uM
[6] = target: Atypical kinase COQ8A, mitochondrial (Homo sapiens) (UniProt Q8NI60); settings: Compound concentration 1000.0 nM
[7] = target: Cyclin-dependent kinase-like 5 (Homo sapiens) (UniProt O76039); settings: Compound concentration 1000.0 nM
[8] = target: Protein kinase C epsilon type (Homo sapiens) (UniProt Q02156); settings: Compound concentration 1000.0 nM
[9] = target: Serine/threonine-protein kinase DCLK3 (Homo sapiens) (UniProt Q9C098); settings: Compound concentration 1000.0 nM
[10] = target: Membrane-associated tyrosine- and threonine-specific cdc2-inhibitory kinase (Homo sapiens) (UniProt Q99640); settings: Compound concentration 1000.0 nM
[11] = target: Tyrosine-protein kinase CSK (Homo sapiens) (UniProt P41240); settings: Compound concentration 1000.0 nM
[12] = target: Serine/threonine-protein kinase 24 (Homo sapiens) (UniProt Q9Y6E0); settings: Compound concentration 1000.0 nM
[13] = target: Dual specificity mitogen-activated protein kinase kinase 6 (Homo sapiens) (UniProt P52564); settings: Compound concentration 1000.0 nM
[14] = target: Discoidin domain-containing receptor 2 (Homo sapiens) (UniProt Q16832); settings: Compound concentration 1000.0 nM
[15] = target: Muscarinic acetylcholine receptor M5 (Homo sapiens) (UniProt P08912); settings: Compound concentration 10.0 uM
[16] = target: Tyrosine-protein kinase Tec (Homo sapiens) (UniProt P42680); settings: Compound concentration 1000.0 nM
[17] = target: Mitogen-activated protein kinase 9 (Homo sapiens) (UniProt P45984); settings: Compound concentration 1000.0 nM
[18] = target: D(4) dopamine receptor (Homo sapiens) (UniProt P21917); settings: Compound concentration 10.0 uM
[19] = target: Epithelial discoidin domain-containing receptor 1 (Homo sapiens) (UniProt Q08345); settings: Compound concentration 1000.0 nM
[20] = target: ALK tyrosine kinase receptor (Homo sapiens) (UniProt Q9UM73); settings: Compound concentration 1000.0 nM
[21] = target: Protein kinase C eta type (Homo sapiens) (UniProt P24723); settings: Compound concentration 1000.0 nM
[22] = target: Myosin light chain kinase, smooth muscle (Homo sapiens) (UniProt Q15746); settings: Compound concentration 1000.0 nM
[23] = target: Mitogen-activated protein kinase kinase kinase kinase 5 (Homo sapiens) (UniProt Q9Y4K4); settings: Compound concentration 1000.0 nM
[24] = target: Glycogen synthase kinase-3 beta (Homo sapiens) (UniProt P49841); settings: Compound concentration 1000.0 nM
[25] = target: Serine/threonine-protein kinase PRP4 homolog (Homo sapiens) (UniProt Q13523); settings: Compound concentration 1000.0 nM
[26] = target: Dual specificity tyrosine-phosphorylation-regulated kinase 2 (Homo sapiens) (UniProt Q92630); settings: Compound concentration 1000.0 nM
[27] = target: Serine/threonine-protein kinase 38 (Homo sapiens) (UniProt Q15208); settings: Compound concentration 1000.0 nM
[28] = tested on: Mast/stem cell growth factor receptor Kit (Homo sapiens), P10721 [V559D]; settings: Compound concentration 1000.0 nM
[29] = target: Receptor tyrosine-protein kinase erbB-3 (Homo sapiens) (UniProt P21860); settings: Compound concentration 1000.0 nM
[30] = target: Tyrosine-protein kinase receptor UFO (Homo sapiens) (UniProt P30530); settings: Compound concentration 1000.0 nM
[31] = tested on: ALK tyrosine kinase receptor (Homo sapiens), Q9UM73 [L1196M]; settings: Compound concentration 1000.0 nM
[32] = target: Beta-adrenergic receptor kinase 1 (Homo sapiens) (UniProt P25098); settings: Compound concentration 1000.0 nM
[33] = target: Serine/threonine-protein kinase Nek3 (Homo sapiens) (UniProt P51956); settings: Compound concentration 1000.0 nM
[34] = target: Sigma non-opioid intracellular receptor 1 (Homo sapiens) (UniProt Q99720); settings: Compound concentration 10.0 uM
[35] = tested on: Epidermal growth factor receptor (Homo sapiens), P00533 [G719S]; settings: Compound concentration 1000.0 nM
[36] = target: NUAK family SNF1-like kinase 2 (Homo sapiens) (UniProt Q9H093); settings: Compound concentration 1000.0 nM
[37] = target: Serine/threonine-protein kinase RIO2 (Homo sapiens) (UniProt Q9BVS4); settings: Compound concentration 1000.0 nM
[38] = target: Serine/threonine-protein kinase TAO1 (Homo sapiens) (UniProt Q7L7X3); settings: Compound concentration 1000.0 nM
[39] = target: Dual specificity tyrosine-phosphorylation-regulated kinase 1B (Homo sapiens) (UniProt Q9Y463); settings: Compound concentration 1000.0 nM
[40] = target: Mitogen-activated protein kinase kinase kinase 4 (Homo sapiens) (UniProt Q9Y6R4); settings: Compound concentration 1000.0 nM
[41] = target: Receptor-type tyrosine-protein kinase FLT3 (Homo sapiens) (UniProt P36888); settings: Compound concentration 1000.0 nM
[42] = target: Non-receptor tyrosine-protein kinase TYK2 (Homo sapiens) (UniProt P29597); settings: Compound concentration 1000.0 nM
[43] = tested on: Phosphatidylinositol 4,5-bisphosphate 3-kinase catalytic subunit alpha isoform (Homo sapiens), P42336 [H1047L]; settings: Compound concentration 1000.0 nM
[44] = target: Ribosomal protein S6 kinase beta-1 (Homo sapiens) (UniProt P23443); settings: Compound concentration 1000.0 nM
[45] = target: Serine/threonine-protein kinase DCLK1 (Homo sapiens) (UniProt O15075); settings: Compound concentration 1000.0 nM

Chain of Casein kinase I isoform gamma-3 (Homo sapiens) (Q9Y6M4 whole entry, looked up, canonical isoform): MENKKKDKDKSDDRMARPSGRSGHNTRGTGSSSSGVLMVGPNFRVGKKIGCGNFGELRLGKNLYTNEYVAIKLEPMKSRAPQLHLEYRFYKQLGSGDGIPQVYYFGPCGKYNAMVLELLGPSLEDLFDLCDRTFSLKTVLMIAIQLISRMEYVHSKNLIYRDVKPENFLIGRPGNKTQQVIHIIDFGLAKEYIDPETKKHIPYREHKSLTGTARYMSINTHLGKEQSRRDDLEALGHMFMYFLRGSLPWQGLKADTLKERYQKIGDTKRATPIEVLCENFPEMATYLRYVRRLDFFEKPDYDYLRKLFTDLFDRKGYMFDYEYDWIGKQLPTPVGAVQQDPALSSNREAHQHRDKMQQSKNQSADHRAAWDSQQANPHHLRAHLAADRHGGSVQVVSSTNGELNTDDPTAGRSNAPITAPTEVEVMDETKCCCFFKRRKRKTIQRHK
Chain of Mitogen-activated protein kinase 9 (Homo sapiens) (P45984 whole entry, looked up): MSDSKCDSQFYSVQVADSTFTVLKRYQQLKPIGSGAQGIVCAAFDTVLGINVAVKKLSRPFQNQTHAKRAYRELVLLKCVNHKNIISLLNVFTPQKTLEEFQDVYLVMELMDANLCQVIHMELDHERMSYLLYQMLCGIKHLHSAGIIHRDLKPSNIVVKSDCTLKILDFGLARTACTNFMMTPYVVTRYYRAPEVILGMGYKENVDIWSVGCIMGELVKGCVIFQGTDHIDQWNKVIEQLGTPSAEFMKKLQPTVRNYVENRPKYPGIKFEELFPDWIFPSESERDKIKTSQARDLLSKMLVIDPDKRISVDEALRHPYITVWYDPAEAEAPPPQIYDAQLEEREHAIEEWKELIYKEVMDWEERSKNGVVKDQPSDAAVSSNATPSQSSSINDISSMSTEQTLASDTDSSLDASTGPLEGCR
Chain of ALK tyrosine kinase receptor (Homo sapiens) (Q9UM73 19-1620 limits assumed): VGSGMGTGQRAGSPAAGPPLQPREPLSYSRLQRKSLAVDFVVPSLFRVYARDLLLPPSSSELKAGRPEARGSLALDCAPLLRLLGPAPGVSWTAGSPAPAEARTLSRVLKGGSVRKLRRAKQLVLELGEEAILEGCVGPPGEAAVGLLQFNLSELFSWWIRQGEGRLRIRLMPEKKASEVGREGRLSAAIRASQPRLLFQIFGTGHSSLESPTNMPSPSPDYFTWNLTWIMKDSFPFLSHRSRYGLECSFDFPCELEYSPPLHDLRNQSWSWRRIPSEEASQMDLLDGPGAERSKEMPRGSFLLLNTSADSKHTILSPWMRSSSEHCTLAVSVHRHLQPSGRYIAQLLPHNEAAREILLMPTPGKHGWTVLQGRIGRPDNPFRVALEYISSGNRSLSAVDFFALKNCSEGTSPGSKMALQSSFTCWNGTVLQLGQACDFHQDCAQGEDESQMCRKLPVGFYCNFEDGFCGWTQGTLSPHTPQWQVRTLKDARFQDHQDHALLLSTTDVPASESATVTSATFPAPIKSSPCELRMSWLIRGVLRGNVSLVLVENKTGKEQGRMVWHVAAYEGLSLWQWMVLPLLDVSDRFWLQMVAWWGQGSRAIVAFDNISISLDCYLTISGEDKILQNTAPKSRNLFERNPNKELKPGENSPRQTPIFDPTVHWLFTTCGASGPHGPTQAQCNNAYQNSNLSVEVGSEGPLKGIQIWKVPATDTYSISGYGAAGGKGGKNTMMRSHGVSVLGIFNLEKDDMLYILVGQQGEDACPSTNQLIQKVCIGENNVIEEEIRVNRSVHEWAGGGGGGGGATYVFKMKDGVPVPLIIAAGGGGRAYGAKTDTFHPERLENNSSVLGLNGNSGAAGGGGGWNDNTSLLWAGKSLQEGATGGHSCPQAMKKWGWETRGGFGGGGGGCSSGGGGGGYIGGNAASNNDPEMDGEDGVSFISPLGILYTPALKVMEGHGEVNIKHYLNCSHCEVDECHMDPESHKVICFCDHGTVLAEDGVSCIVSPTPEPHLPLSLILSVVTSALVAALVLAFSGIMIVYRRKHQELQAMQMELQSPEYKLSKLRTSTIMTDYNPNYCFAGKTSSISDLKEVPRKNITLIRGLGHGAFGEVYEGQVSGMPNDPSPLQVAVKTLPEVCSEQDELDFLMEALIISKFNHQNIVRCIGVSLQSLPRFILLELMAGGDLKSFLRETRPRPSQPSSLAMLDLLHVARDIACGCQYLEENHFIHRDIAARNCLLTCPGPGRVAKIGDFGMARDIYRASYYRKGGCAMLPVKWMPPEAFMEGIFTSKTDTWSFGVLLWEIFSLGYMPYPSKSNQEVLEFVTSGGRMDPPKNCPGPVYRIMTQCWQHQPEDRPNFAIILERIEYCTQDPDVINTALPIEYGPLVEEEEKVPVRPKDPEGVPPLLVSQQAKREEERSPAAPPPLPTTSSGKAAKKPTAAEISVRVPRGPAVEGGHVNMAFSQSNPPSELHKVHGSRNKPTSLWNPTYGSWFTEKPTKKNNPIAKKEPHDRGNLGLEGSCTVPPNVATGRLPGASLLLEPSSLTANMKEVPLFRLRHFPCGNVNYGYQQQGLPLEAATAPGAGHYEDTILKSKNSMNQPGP
Chain of Protein kinase C epsilon type (Homo sapiens) (Q02156 whole entry): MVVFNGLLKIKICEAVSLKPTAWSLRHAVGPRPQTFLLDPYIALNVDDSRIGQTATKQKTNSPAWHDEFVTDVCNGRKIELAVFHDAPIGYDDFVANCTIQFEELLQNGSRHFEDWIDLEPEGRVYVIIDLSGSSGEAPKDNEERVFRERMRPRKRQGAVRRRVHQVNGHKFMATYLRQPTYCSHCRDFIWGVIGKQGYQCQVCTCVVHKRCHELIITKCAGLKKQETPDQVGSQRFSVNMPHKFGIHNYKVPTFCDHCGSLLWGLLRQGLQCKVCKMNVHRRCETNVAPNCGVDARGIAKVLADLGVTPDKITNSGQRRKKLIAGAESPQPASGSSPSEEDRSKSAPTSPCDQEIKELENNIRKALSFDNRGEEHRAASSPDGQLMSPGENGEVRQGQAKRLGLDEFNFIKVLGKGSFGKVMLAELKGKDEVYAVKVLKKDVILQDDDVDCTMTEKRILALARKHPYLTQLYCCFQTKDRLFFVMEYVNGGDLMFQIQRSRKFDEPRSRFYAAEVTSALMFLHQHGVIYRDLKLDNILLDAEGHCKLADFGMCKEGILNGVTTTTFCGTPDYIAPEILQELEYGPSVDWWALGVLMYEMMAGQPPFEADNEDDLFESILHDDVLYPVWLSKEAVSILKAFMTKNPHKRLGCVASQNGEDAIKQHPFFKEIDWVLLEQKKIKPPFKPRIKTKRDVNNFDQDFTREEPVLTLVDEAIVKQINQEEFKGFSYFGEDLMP
Chain of Serine/threonine-protein kinase DCLK3 (Homo sapiens) (Q9C098 whole entry): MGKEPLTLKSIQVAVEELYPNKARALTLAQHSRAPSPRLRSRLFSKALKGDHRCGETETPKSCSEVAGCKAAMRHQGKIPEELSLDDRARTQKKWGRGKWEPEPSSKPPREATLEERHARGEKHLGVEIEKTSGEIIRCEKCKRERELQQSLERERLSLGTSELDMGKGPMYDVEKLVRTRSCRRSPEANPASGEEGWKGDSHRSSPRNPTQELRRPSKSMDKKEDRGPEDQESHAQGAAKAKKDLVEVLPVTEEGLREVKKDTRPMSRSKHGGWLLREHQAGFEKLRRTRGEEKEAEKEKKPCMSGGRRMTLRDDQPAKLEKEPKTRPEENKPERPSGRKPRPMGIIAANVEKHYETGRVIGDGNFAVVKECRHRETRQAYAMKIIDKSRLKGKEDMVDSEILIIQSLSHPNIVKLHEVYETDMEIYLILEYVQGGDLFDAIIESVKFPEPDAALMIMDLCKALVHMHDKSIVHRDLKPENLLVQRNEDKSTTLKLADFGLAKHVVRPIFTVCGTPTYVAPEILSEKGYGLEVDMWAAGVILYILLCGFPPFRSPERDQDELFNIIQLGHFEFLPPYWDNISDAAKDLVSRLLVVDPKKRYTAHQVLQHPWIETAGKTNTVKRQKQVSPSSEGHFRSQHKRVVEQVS
Chain of Discoidin domain-containing receptor 2 (Homo sapiens) (Q16832 whole entry, the tested form may be a part): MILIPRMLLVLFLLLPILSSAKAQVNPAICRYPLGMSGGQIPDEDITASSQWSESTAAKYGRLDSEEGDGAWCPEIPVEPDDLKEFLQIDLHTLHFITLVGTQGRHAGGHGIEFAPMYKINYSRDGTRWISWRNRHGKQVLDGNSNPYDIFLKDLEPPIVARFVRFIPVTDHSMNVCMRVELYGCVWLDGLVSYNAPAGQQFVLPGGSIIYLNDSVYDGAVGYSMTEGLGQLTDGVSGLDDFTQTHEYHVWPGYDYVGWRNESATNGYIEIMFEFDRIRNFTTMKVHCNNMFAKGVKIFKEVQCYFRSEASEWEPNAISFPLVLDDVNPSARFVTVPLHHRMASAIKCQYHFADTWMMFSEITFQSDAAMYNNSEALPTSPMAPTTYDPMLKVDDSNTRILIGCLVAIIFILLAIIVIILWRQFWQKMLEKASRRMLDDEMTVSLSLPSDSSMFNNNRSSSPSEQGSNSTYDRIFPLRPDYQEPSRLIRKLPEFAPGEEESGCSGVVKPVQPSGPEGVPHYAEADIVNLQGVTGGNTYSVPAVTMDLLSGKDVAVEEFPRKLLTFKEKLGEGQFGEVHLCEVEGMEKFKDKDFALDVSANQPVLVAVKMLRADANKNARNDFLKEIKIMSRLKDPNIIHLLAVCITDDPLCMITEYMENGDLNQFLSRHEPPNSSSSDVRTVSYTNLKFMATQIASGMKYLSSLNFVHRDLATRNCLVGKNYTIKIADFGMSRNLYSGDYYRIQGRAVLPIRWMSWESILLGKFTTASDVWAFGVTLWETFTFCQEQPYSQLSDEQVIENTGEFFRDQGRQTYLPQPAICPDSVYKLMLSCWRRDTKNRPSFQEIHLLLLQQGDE
Chain of Dual specificity mitogen-activated protein kinase kinase 6 (Homo sapiens) (P52564 whole entry, the tested form may be a part): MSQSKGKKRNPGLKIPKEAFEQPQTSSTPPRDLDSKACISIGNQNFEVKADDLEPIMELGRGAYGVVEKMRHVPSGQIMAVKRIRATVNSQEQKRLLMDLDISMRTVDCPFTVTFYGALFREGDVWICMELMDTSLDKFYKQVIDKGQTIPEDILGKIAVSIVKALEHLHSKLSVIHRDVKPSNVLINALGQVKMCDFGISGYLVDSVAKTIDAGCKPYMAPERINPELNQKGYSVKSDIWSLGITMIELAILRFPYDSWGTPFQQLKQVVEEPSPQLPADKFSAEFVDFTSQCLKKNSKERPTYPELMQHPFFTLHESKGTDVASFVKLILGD

For FC(F)(F)c1ccc2c(c1)nc(-c1cccnc1)n2C1CC1 [MSD-CYP11B2-Negative-control], the residual activity [1] was 83%, the residual activity [2] was 100% and the inhibition [3] was 79.7%. The residual activity [4] was 100%, the inhibition [5] was 15.3% and the residual activity [6] was 100%. It also gave a residual activity [7] of 91%, a residual activity [8] of 97% and a residual activity [9] of 100%. It also gave a residual activity [10] of 100%, a residual activity [11] of 100% and a residual activity [12] of 100%. For the same molecule, the residual activity [13] was 98%, the residual activity [14] was 100% and the inhibition [15] was -6.15%. For the same molecule, the residual activity [16] was 100%, the residual activity [17] was 100% and the inhibition [18] was -3.28%. It also gave a residual activity [19] of 100%, a residual activity [20] of 100% and a residual activity [21] of 100%. It also gave a residual activity [22] of 100%, a residual activity [23] of 100% and a residual activity [24] of 100%. It also gave a residual activity [25] of 98%, a residual activity [26] of 100% and a residual activity [27] of 93%. The residual activity [28] was 100%, the residual activity [29] was 77% and the residual activity [30] was 100%. For the same molecule, the residual activity [31] was 100%, the residual activity [32] was 100% and the residual activity [33] was 88%. For the same molecule, the inhibition [34] was 16.9%, the residual activity [35] was 93% and the residual activity [36] was 100%. For the same molecule, the residual activity [37] was 100%, the residual activity [38] was 100% and the residual activity [39] was 53%. For the same molecule, the residual activity [40] was 100%, the residual activity [41] was 100% and the residual activity [42] was 100%. For the same molecule, the residual activity [43] was 100%, the residual activity [44] was 100% and the residual activity [45] was 84%.
Work on CC(C)(O)c1cncc(-c2nc3ccc(F)cc3n2C2CC2)c1 [MSD-CYP11B2] yielded a residual activity [1] of 99%, a residual activity [2] of 100% and an inhibition [3] of 63.1%. It also gave a residual activity [4] of 100%, an inhibition [5] of 1.47% and a residual activity [6] of 100%. The residual activity [7] was 100%, the residual activity [8] was 100% and the residual activity [9] was 100%. It also gave a residual activity [10] of 100%, a residual activity [11] of 100% and a residual activity [12] of 100%. It also gave a residual activity [13] of 100%, a residual activity [14] of 100% and an inhibition [15] of -2.81%. For the same molecule, the residual activity [16] was 100%, the residual activity [17] was 100% and the inhibition [18] was -5.72%. The residual activity [19] was 100%, the residual activity [20] was 77% and the residual activity [21] was 98%. For the same molecule, the residual activity [22] was 80%, the residual activity [23] was 92% and the residual activity [24] was 100%. For the same molecule, the residual activity [25] was 58%, the residual activity [26] was 100% and the residual activity [27] was 99%. For the same molecule, the residual activity [28] was 100%, the residual activity [29] was 80% and the residual activity [30] was 100%. For the same molecule, the residual activity [31] was 100%, the residual activity [32] was 100% and the residual activity [33] was 100%. The inhibition [34] was 27.7%, the residual activity [35] was 100% and the residual activity [36] was 100%. It also gave a residual activity [37] of 100%, a residual activity [38] of 100% and a residual activity [39] of 44%. The residual activity [40] was 100%, the residual activity [41] was 100% and the residual activity [42] was 94%. The residual activity [43] was 97%, the residual activity [44] was 100% and the residual activity [45] was 88%.
